Measured values from US20260137701A1, “CHOLESTENOIC ACID (CA) AND A SULFATED DERIVATIVE THEREOF, 3[BETA]-SULFATE-5-CHOLESTENOIC ACID (CA3S), AS ENDOGENOUS EPIGENETIC REGULATORS” (priority 2022, published 2026).

Test system: HepG-2 cells
Assay: Whole genome bisulfite sequencing (WGBS), differentially methylated regions
Assay type: cell-based, human
Conditions: for DMR (Methylation %) UQCRC1 promoter region / DMR (Methylation %) VDAC2 promoter region / number of DMRs in promoter region, hyper-methylated / number of DMRs in promoter region, hypo-methylated / number of DMRs in promoter region, total / DMR (Methylation %) ADRA1A promoter region / DMR (Methylation %) ADRA1B promoter region / DMR (Methylation %) ADRA1 promoter region / DMR (Methylation %) BCL6 promoter region / DMR (Methylation %) CACNA1D promoter region / DMR (Methylation %) CALML3 promoter region / DMR (Methylation %) CALML4 promoter region / DMR (Methylation %) CAMKK2 promoter region / DMR (Methylation %) COX7B promoter region / DMR (Methylation %) COX8A promoter region / DMR (Methylation %) CPT1A promoter region / DMR (Methylation %) CPT1C promoter region / DMR (Methylation %) CREB3L4 promoter region / DMR (Methylation %) CYP1A1 promoter region / DMR (Methylation %) ESR2 promoter region / DMR (Methylation %) FBP1 promoter region / DMR (Methylation %) FGF1 promoter region / DMR (Methylation %) FGF8 promoter region / DMR (Methylation %) FGFR2 promoter region / DMR (Methylation %) LDHA promoter region / DMR (Methylation %) LDHAL6A promoter region / DMR (Methylation %) LDHC promoter region / DMR (Methylation %) LEP promoter region / DMR (Methylation %) MIR29A promoter region / DMR (Methylation %) MIRLET7B promoter region / DMR (Methylation %) MTOR promoter region / DMR (Methylation %) NTRK3 promoter region / DMR (Methylation %) PDHA2 promoter region / DMR (Methylation %) PDHB promoter region / DMR (Methylation %) PHKG1 promoter region / DMR (Methylation %) PPARG promoter region / DMR (Methylation %) SDHA promoter region / DMR (Methylation %) SDHB promoter region / DMR (Methylation %) SPHK2 promoter region: 20 μM CA
Experimental: After culturing HepG-2 cells in DMEM medium with HG for 72 hours followed by treating with 20 μM CA for 0, 3, 6, 12, and 24 hours, genomic DNA from 5×10^7 cells were extracted using QIAamp® DNA Mini Kit (QIAGEN, Hilden, Germany). Each sample, 6 μg, was sent to CD Genomics Co., Ltd (New York, USA) for analysis of WGBS. Total RNA was isolated using the Promega SV total RNA isolation system (Madison, WI, USA) with DNase treatment. Each sample, 2 μg, were sent to CD Genomics Co., Ltd (New York, USA) for analysis of RNA sequencing. The same samples, 2 μg, was used for the first-strand cDNA synthesis as recommended by the manufacturer (Invitrogen, Carlsbad, CA). RT-qPCR was performed using SYBR Green as the indicator on ABI 7500 Fast Real-Time PCR System (Applied Biosystems, Foster City, CA). Amplifications of j-actin or GAPDH were used as internal controls. Relative messenger RNA (mRNA) expression was quantified with the comparative cycle threshold (Ct) method using a sutiable primer set and was expressed as 2-ΔΔCt as described previously.
Each sample, 1 μg of genomic DNA was fragmented by sonication to a mean size of approximately 200-400 bp, and subsequently used for WGBS library construction using Acegen Bisulfite-Seq Library Prep Kit (Acegen) following the manufacturer's instructions. The methylated adapter-ligated DNAs were purified using 0.8×Agencourt AMPure™ XP magnetic beads and subjected to bisulfite conversion by ZYMO EZ DNA Methylation-Gold™ Kit (Zymo Research Corporation, CA, USA). The converted DNAs were then amplified using 25 μl KAPA HiFi™ HotStart Uracil+ ReadyMix (2×) and 8-bp index primers with a final concentration of 1 μM each. The constructed WGBS libraries were then analyzed by Agilent 2100 Bioanalyzer and quantified by a Qubit fluorometer with Quant-iT™ dsDNA HS Assay Kit (Invitrogen), and finally sequenced on Illumina® Hiseq X™ Ten sequencer. After the preparation of the library, Qubit 2.0 and Agilent 2100 were used respectively to detect the concentration of the library and the Insert Size, and the effective concentration (>2 nM) of the library was quantitatively determined by Q-PCR to ensure the library quality.
Samples were sequenced using the Illumina® HiSeq sequencing platform. Raw data generated on the sequencing platform contained a small percentage of low-quality data, which was then filtered to get high-quality data. Bsmap software was used to perform alignments of bisulfite-treated reads to a reference genome (GRCh37). Metilene software was used to identify differentially methylated regions (DMRs). DAVID software (website located at david.ncifcrf.gov/) was used to test the statistical enrichment of DMR related genes in the Gene Ontology (GO) and Kyoto Encyclopedia of Genes and Genomes (KEGG) pathways.

CC(CCC[C@@H](C)[C@H]1CC[C@H]2[C@@H]3CC=C4C[C@@H](O)CC[C@]4(C)[C@H]3CC[C@]12C)C(=O)O (stereo partly drawn) [CA, 3β-hydroxy-5-cholestenoic acid]
DMR (Methylation %) UQCRC1 promoter region (6 h): −56.12%
DMR (Methylation %) VDAC2 promoter region (6 h): −40.06%
number of DMRs in promoter region, hyper-methylated (6 hours): 1,749
number of DMRs in promoter region, hypo-methylated (6 hours): 22,621
number of DMRs in promoter region, total (6 hours): 24,370
DMR (Methylation %) ADRA1A promoter region (12 h): −30.57%
DMR (Methylation %) ADRA1B promoter region (12 h): 0%
DMR (Methylation %) ADRA1 promoter region (12 h): −30.57%
DMR (Methylation %) BCL6 promoter region (12 h): −33.25%
DMR (Methylation %) CACNA1D promoter region (12 h): 0%
DMR (Methylation %) CALML3 promoter region (12 h): −30.32%
DMR (Methylation %) CALML4 promoter region (12 h): −21.6%
DMR (Methylation %) CAMKK2 promoter region (12 h): −23.88%
DMR (Methylation %) COX7B promoter region (12 h): 0%
DMR (Methylation %) COX8A promoter region (12 h): 0%
DMR (Methylation %) CPT1A promoter region (12 h): −16.93%
DMR (Methylation %) CPT1C promoter region (12 h): −24.72%
DMR (Methylation %) CREB3L4 promoter region (12 h): 0%
DMR (Methylation %) CYP1A1 promoter region (12 h): 0%
DMR (Methylation %) ESR2 promoter region (12 h): −28.97%
DMR (Methylation %) FBP1 promoter region (12 h): 0%
DMR (Methylation %) FGF1 promoter region (12 h): −48.58%
DMR (Methylation %) FGF8 promoter region (12 h): −37.87%
DMR (Methylation %) FGFR2 promoter region (12 h): 0%
DMR (Methylation %) LDHA promoter region (12 h): −36.43%
DMR (Methylation %) LDHAL6A promoter region (12 h): 0%
DMR (Methylation %) LDHC promoter region (12 h): 0%
DMR (Methylation %) LEP promoter region (12 h): −62.7%
DMR (Methylation %) MIR29A promoter region (12 h): −22.09%
DMR (Methylation %) MIRLET7B promoter region (12 h): 0%
DMR (Methylation %) MTOR promoter region (12 h): −27.13%
DMR (Methylation %) NTRK3 promoter region (12 h): −53.95%
DMR (Methylation %) PDHA2 promoter region (12 h): −28.93%
DMR (Methylation %) PDHB promoter region (12 h): 0%
DMR (Methylation %) PHKG1 promoter region (12 h): −24.54%
DMR (Methylation %) PPARG promoter region (12 h): −27.41%
DMR (Methylation %) SDHA promoter region (12 h): 0%
DMR (Methylation %) SDHB promoter region (12 h): −38.35%
DMR (Methylation %) SPHK2 promoter region (12 h): −18.02%
DMR (Methylation %) UQCRC1 promoter region (12 h): −23.36%
DMR (Methylation %) VDAC2 promoter region (12 h): −19.71%
number of DMRs in promoter region, hyper-methylated (12 hours): 1,891
number of DMRs in promoter region, hypo-methylated (12 hours): 23,813
number of DMRs in promoter region, total (12 hours): 25,704
DMR (Methylation %) ADRA1A promoter region (24 h): −30.81%
DMR (Methylation %) ADRA1B promoter region (24 h): 0%
DMR (Methylation %) ADRA1 promoter region (24 h): −30.81%
DMR (Methylation %) BCL6 promoter region (24 h): −31.52%
DMR (Methylation %) CACNA1D promoter region (24 h): 0%
DMR (Methylation %) CALML3 promoter region (24 h): −26.91%
DMR (Methylation %) CALML4 promoter region (24 h): −21%
DMR (Methylation %) CAMKK2 promoter region (24 h): 0%
DMR (Methylation %) COX7B promoter region (24 h): 0%
DMR (Methylation %) COX8A promoter region (24 h): −34.15%
DMR (Methylation %) CPT1A promoter region (24 h): −29.33%
DMR (Methylation %) CPT1C promoter region (24 h): −24.09%
DMR (Methylation %) CREB3L4 promoter region (24 h): −35.93%
DMR (Methylation %) CYP1A1 promoter region (24 h): −27.04%
DMR (Methylation %) ESR2 promoter region (24 h): −24.69%
DMR (Methylation %) FBP1 promoter region (24 h): −28.62%
DMR (Methylation %) FGF1 promoter region (24 h): 0%
DMR (Methylation %) FGF8 promoter region (24 h): 0%
DMR (Methylation %) FGFR2 promoter region (24 h): −24.29%
DMR (Methylation %) LDHA promoter region (24 h): −32.94%
DMR (Methylation %) LDHAL6A promoter region (24 h): −22.36%
DMR (Methylation %) LDHC promoter region (24 h): −31.77%
DMR (Methylation %) LEP promoter region (24 h): 0%
DMR (Methylation %) MIR29A promoter region (24 h): −26.93%
DMR (Methylation %) MIRLET7B promoter region (24 h): −24.75%
DMR (Methylation %) MTOR promoter region (24 h): 0%
DMR (Methylation %) NTRK3 promoter region (24 h): −53.82%
DMR (Methylation %) PDHA2 promoter region (24 h): −38.56%
DMR (Methylation %) PDHB promoter region (24 h): −26.74%
DMR (Methylation %) PHKG1 promoter region (24 h): −33.52%
DMR (Methylation %) PPARG promoter region (24 h): −27.57%
DMR (Methylation %) SDHA promoter region (24 h): −23.5%
DMR (Methylation %) SDHB promoter region (24 h): 0%
DMR (Methylation %) SPHK2 promoter region (24 h): −45.29%
DMR (Methylation %) UQCRC1 promoter region (24 h): −26.32%
DMR (Methylation %) VDAC2 promoter region (24 h): −26.13%
number of DMRs in promoter region, hyper-methylated (24 hours): 1,594
number of DMRs in promoter region, hypo-methylated (24 hours): 26,762
number of DMRs in promoter region, total (24 hours): 28,356
number of genes with demethylation of 5 mCpG to CpG in promoter regions (HepG-2 cells): over 7,000
